Measurements: ChEMBL document CHEMBL1201862, “PubChem BioAssay data set” (2004)
Calls of active or inactive are those of the source.

Columns and labels:
[1] = target: Beta-2 adrenergic receptor (Homo sapiens, UniProt P07550); assay: beta2AR agonists driving receptor internalization, dose response, cell-based, FAP fluorogen, flow cytometry, cherry pick 1 (AID 588763); format: functional
CAAX prenyl protease 2 [2] = target: CAAX prenyl protease 2 (Homo sapiens, UniProt Q9Y256); assay: human Rce1 protease inhibitors, dose response, biochemical, plate reader, dry powder samples (AID 588848)
CAAX prenyl protease 2 (Homo sapiens, UniProt Q9Y256), sequence (Q9Y256 whole entry): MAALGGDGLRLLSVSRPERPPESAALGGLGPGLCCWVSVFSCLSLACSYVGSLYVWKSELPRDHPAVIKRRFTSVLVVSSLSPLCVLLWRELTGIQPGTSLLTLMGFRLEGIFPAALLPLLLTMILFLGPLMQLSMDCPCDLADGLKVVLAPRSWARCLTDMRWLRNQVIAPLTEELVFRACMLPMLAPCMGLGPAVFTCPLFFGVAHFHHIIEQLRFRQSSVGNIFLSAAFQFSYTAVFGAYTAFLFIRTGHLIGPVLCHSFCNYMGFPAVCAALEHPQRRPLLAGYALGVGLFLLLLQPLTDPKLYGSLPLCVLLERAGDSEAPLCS

[3] = mammalian cell cytotoxicity, dose response, cytotoxicity control, plate reader, cherry-pick samples (AID 504397); format: functional, cell-based
CAAX prenyl protease 2 [4] = target: CAAX prenyl protease 2 (Saccharomyces cerevisiae S288c, UniProt Q03530); format: biochemical
[5] = target: Luciferin 4-monooxygenase (Photinus pyralis, UniProt P08659); assay: firefly luciferase enzyme inhibitors, dose response, biochemical, luminescence (AID 1891)
[6] = Luminescence Cell-Based Dose Confirmation HTS to Identify Inhibitors of Platelet Dense Granule Release. [Related pubchem assays: 1663 (Primary HTS), 1678 (Summary of Project)]; format: functional
Phospholipase D2 [7] = target: T1, Phospholipase D2 (Homo sapiens, UniProt O14939); assay: PLD2 inhibitor potency in cells, dose response (AID 602147); format: functional;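 note: cellular assay in HEK293 cells overexpressing GFP-tagged PLD2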
T1 sequence (O14939 whole entry): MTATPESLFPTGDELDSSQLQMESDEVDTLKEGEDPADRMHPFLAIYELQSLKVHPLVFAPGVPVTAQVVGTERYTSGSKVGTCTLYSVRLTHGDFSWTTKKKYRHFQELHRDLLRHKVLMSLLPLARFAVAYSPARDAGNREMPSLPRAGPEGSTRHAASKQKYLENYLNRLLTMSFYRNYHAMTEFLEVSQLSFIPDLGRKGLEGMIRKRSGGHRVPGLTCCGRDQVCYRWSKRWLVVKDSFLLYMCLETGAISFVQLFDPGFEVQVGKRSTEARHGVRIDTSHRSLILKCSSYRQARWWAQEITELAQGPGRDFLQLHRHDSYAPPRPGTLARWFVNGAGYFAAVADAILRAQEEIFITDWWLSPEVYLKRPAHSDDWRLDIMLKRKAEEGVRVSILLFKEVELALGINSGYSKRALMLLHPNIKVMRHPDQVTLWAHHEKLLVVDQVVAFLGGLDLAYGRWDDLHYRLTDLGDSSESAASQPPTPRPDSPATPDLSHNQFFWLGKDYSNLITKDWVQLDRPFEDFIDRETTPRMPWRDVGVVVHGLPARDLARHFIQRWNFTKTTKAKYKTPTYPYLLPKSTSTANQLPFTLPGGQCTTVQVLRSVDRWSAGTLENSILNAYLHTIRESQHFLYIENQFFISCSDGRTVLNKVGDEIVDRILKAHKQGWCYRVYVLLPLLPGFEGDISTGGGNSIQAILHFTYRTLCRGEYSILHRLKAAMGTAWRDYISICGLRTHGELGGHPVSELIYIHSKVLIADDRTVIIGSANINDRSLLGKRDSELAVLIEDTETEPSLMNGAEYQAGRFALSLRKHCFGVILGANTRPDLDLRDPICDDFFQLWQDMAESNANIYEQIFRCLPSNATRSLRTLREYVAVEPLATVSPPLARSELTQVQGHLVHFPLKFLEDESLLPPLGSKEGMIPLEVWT

Phospholipase D1 [8] = target: T2, Phospholipase D1 (Homo sapiens, UniProt Q13393); assay: PLD1 inhibitor potency in cells, dose response (AID 602151); format: functional;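 note: cellular PLD1 assay in Calu-1 cells stimulated with PMA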
T2 sequence (Q13393 whole entry, the tested form may be a part): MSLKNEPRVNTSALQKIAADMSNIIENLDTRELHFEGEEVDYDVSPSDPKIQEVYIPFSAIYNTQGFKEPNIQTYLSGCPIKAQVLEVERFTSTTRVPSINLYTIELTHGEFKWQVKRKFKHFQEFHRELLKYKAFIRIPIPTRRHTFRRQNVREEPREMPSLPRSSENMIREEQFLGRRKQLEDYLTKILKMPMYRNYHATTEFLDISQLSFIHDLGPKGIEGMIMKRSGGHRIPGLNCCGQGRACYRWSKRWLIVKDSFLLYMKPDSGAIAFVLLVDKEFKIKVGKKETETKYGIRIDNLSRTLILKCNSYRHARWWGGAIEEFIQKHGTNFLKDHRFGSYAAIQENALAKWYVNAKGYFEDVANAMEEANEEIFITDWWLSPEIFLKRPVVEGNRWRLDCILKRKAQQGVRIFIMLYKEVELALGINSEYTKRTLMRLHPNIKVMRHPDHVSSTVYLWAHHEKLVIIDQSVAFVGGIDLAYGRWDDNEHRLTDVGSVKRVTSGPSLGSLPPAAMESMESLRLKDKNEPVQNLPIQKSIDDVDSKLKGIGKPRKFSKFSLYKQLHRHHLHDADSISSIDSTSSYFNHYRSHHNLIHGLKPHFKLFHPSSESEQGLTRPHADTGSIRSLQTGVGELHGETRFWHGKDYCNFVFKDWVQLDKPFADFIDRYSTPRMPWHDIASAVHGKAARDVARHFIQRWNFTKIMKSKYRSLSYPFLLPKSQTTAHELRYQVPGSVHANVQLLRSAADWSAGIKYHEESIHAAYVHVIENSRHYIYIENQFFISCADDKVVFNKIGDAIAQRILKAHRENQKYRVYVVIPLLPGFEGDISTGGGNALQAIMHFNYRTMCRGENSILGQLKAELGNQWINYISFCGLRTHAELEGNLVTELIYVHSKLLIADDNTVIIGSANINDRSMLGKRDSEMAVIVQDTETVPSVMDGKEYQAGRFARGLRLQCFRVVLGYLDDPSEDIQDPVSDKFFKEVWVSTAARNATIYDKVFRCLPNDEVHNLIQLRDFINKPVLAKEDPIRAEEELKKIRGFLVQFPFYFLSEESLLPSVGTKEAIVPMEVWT

Hexokinase HKDC1 = Hexokinase HKDC1 (Homo sapiens, UniProt Q2TB90); assay: SAR analysis of small molecule inhibitors of hexokinase domain containing I (HKDC1). [Related pubchem assays (depositor defined):AID493160, AID493190]; format: functional
Hexokinase HKDC1, sequence (Q2TB90 whole entry, the tested form may be a part): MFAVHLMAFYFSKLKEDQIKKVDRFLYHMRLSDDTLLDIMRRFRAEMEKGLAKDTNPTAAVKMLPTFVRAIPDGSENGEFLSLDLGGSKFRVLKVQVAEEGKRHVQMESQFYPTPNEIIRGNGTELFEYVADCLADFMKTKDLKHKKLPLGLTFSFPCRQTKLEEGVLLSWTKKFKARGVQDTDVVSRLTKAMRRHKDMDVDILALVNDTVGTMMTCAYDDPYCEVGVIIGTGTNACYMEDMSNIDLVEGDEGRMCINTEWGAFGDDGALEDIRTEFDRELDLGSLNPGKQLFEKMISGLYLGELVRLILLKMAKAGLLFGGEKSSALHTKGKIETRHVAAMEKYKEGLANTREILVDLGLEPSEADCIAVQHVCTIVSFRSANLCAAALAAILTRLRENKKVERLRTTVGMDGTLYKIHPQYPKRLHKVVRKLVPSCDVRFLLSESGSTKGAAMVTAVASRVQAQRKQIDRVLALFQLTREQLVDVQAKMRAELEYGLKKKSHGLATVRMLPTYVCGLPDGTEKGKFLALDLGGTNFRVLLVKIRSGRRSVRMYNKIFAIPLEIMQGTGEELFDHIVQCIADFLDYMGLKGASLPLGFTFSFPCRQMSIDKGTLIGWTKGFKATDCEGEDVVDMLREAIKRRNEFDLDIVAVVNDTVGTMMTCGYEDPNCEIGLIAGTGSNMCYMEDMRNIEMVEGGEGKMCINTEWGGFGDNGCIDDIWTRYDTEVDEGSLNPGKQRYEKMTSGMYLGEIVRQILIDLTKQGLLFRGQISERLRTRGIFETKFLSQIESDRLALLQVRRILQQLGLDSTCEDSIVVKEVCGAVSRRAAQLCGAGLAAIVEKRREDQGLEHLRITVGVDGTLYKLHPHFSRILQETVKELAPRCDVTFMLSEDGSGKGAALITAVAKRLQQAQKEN

Hexokinase-1 = Hexokinase-1 (Homo sapiens, UniProt P19367); assay: SAR analysis of small molecule inhibitors of hexokinase domain containing I (HKDC1) in the hexokinase 1 selectivity assay. [Related pubchem assays (depositor defined):AID493160, AID493190]; format: functional
Caspase-3 [9] = target: T3, Caspase-3 (Homo sapiens, UniProt P42574); assay: SAR Analysis of small molecule inhibitors of Sentrin-specific proteases (SENPs) using a Caspase-3 Selectivity assay. [Related pubchem assays (depositor defined):AID2540, AID2599, AID434973, AID489001]; format: functional
T3 sequence (P42574 whole entry): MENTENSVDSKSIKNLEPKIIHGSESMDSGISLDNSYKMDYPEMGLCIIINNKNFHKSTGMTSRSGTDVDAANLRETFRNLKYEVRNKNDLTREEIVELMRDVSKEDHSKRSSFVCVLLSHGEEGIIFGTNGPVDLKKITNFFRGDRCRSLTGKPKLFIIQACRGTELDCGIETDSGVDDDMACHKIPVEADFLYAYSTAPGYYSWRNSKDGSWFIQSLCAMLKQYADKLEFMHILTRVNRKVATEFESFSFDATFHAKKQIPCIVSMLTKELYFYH

[10] = target: T4, Sentrin-specific protease 7 (Homo sapiens, UniProt Q9BQF6); assay: SENP7 protease inhibitors, SAR follow-up, biochemical, luminescence, set 2 (AID 588600); format: functional
T4 sequence (Q9BQF6 whole entry): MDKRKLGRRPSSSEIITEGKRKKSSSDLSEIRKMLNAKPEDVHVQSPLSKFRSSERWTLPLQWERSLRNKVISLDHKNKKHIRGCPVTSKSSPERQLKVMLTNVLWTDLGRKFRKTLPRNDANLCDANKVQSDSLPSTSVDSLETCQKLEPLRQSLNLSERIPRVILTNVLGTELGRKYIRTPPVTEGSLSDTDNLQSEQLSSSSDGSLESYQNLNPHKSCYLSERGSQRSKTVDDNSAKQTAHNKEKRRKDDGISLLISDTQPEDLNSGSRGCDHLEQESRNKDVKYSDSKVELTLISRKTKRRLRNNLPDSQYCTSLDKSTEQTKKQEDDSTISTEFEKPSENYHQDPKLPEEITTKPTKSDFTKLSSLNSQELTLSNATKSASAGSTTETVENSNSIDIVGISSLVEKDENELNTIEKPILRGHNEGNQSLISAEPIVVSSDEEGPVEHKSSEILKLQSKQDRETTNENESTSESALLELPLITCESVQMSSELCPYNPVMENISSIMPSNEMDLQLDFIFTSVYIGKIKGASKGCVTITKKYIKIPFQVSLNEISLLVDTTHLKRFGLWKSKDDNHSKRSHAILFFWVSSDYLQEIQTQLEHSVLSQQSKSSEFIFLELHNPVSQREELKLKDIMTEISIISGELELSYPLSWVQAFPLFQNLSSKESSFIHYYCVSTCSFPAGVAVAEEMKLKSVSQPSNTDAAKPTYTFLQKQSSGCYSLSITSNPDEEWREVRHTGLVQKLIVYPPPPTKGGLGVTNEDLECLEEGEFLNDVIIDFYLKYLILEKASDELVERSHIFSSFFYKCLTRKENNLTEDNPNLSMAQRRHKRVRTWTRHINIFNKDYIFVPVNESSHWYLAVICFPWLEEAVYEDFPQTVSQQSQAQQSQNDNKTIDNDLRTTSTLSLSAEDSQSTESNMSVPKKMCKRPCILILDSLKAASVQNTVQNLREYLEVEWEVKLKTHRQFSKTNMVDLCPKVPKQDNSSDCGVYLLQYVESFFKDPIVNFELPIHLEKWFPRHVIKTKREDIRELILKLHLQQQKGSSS

[11] = target: T5, Sentrin-specific protease 6 (Homo sapiens, UniProt Q9GZR1); assay: SENP6 protease inhibitors, SAR follow-up, biochemical, luminescence, set 2 (AID 588598); format: functional
T5 sequence (Q9GZR1 whole entry): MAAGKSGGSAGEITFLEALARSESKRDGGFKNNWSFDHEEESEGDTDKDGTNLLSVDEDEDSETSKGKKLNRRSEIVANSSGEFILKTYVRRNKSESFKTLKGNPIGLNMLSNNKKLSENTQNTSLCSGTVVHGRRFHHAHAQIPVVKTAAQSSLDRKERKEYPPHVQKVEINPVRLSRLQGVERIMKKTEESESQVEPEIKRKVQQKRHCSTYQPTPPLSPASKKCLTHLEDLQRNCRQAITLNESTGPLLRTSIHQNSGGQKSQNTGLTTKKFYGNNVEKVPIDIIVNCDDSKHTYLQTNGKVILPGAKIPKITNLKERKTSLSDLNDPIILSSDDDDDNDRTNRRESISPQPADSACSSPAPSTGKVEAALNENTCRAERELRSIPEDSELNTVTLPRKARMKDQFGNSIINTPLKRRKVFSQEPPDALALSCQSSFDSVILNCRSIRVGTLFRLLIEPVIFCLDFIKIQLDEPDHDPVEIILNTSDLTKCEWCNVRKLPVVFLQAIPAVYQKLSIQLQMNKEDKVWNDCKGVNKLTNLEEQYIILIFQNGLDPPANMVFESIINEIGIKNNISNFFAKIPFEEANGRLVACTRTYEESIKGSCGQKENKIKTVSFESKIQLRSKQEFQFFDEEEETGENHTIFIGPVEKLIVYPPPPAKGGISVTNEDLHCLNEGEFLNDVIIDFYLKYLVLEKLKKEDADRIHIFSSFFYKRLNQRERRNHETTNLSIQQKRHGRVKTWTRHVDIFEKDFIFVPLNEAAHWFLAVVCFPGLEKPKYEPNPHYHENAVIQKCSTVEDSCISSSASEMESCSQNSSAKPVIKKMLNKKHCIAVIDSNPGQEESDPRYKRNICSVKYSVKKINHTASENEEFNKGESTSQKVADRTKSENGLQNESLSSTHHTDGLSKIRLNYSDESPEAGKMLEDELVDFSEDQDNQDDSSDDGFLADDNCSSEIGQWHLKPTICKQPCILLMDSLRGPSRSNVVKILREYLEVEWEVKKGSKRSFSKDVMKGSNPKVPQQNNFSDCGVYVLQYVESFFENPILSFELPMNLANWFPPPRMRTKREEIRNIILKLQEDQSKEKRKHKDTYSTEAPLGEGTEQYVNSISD

[12] = target: T6, Sentrin-specific protease 8 (Homo sapiens, UniProt Q96LD8); assay: SENP8 protease inhibitors, SAR follow-up, biochemical, luminescence, set 2 (AID 588601); format: functional
T6 sequence (Q96LD8 whole entry): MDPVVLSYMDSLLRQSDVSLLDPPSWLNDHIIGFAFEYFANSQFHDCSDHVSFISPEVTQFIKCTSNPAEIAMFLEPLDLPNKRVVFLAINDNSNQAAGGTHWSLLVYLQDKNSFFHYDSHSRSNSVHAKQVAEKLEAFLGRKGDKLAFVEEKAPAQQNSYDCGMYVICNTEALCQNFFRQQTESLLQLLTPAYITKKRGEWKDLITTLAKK

[13] = target: T5, Sentrin-specific protease 6; assay: SAR Analysis of small molecule inhibitors of Sentrin-specific protease 6 (SENP6) using a Luminescent assay. [Related pubchem assays (depositor defined):AID2582, AID2599]; format: functional
[14] = target: T4, Sentrin-specific protease 7; assay: SENP7 protease inhibitors, SAR follow-up, biochemical, luminescence (AID 504497); format: functional
[15] = target: T6, Sentrin-specific protease 8; assay: SENP8 protease inhibitors, SAR follow-up, biochemical, luminescence (AID 504501); format: functional
Caspase-3 [16] = target: T3, Caspase-3; assay: caspase-3 inhibitors as off-family protease, SAR follow-up, selectivity assay for SENP protease inhibitor project, biochemical, luminescence, set 2 (AID 588599); format: functional
Phospholipase D2 [17] = target: T1, Phospholipase D2; assay: PLD2 purified enzyme concentration response. [Related pubchem assays (depositor defined):AID588854]; format: functional
Phospholipase D1 [18] = target: T2, Phospholipase D1; assay: PLD1 purified enzyme concentration response. [Related pubchem assays (depositor defined):AID588854]; format: functional
Large T antigen = Large T antigen (Simian virus 40, UniProt P03070); format: functional, Betapolyomavirus macacae;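 note: Confirmatory-stage PubChem screen for compounds that inhibit SV40 T antigen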
Large T antigen, sequence (P03070 whole entry): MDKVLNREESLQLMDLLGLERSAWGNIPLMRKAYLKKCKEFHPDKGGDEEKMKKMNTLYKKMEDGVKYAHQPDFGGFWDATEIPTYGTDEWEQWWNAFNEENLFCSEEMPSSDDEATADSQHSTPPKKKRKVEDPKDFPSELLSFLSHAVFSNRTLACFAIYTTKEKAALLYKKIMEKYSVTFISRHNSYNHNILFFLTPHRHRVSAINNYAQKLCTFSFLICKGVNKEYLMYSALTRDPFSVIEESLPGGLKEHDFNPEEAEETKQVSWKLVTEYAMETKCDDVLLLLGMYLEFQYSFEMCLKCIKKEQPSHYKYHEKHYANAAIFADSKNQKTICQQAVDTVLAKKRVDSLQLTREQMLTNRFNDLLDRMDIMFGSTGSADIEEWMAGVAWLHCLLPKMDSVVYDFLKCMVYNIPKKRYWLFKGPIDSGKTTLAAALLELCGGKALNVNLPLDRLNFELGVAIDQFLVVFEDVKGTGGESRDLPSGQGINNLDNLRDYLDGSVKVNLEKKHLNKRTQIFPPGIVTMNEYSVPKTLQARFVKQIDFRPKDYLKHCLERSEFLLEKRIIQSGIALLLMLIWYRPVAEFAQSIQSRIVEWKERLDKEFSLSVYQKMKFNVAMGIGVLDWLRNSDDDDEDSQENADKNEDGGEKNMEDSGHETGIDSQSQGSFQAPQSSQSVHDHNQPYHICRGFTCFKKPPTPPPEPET

Aspartyl aminopeptidase = target: T7, Aspartyl aminopeptidase (Plasmodium falciparum 3D7, UniProt Q8I2J3)
T7 sequence (Q8I2J3 whole entry): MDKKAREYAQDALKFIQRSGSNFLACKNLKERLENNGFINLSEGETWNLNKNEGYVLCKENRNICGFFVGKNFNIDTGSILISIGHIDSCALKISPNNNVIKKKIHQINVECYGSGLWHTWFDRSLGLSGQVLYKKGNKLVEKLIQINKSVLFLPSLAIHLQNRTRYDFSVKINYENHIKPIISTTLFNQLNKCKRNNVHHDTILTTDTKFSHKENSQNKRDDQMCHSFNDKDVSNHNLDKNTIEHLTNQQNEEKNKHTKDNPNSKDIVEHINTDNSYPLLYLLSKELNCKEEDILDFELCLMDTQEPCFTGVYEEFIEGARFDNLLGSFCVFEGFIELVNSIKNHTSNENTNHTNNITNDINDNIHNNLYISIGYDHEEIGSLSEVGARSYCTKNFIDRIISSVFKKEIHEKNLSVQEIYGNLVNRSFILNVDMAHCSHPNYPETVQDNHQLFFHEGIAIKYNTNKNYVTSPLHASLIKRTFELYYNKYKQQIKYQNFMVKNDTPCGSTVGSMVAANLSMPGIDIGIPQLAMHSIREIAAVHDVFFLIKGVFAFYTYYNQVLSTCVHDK

Procathepsin L = Procathepsin L (Homo sapiens, UniProt P07711)
[19] = target: Latent membrane protein 1 (Human herpesvirus 4 (strain B95-8), UniProt P03230); assay: TES1-eGFP NF-kB reporter inhibition versus Tet-On dsRED, dose response, selectivity assay for LMP1 NF-kB inhibitor project, imaging, HEK293T, dual-color eGFP/dsRED, cherry-picks (AID 588398); format: functional, cell-based
Oxytocin receptor = Oxytocin receptor (Homo sapiens, UniProt P30559); assay: Fluorescence-based cell-based high throughput dose response assay for potentiators of Oxytocin Receptor (OXTR). [Related pubchem assays: 434985 (Confirmation screen (OXTR potentiators in triplicate)), 2481 (Summary (OXTR potentiators)), 2445 (Primary screen (OXTR potentiators in singlicate))]; format: functional
Oxytocin receptor, sequence (P30559 whole entry): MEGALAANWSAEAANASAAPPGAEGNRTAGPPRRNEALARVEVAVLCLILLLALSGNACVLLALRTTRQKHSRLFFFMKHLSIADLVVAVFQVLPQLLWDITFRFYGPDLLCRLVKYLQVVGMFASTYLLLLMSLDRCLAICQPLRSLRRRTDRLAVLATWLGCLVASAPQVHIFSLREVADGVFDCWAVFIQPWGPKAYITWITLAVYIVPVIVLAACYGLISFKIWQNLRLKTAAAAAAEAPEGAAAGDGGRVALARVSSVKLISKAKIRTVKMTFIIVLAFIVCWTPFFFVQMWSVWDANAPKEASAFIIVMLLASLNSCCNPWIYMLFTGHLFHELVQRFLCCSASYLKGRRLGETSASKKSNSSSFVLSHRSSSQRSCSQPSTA

Beta-2 adrenergic receptor, sequence (P07550 whole entry): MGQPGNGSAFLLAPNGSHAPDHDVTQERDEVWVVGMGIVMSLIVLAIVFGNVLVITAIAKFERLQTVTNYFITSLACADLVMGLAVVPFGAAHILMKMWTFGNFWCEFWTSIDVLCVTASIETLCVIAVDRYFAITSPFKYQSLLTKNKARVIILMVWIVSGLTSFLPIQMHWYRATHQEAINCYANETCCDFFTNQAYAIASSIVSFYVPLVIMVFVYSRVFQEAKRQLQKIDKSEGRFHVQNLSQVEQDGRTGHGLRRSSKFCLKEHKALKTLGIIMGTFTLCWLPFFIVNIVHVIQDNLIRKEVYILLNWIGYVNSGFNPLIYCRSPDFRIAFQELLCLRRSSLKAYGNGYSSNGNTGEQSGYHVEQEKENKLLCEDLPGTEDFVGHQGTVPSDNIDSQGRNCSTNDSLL

O=C(NCCCn1ccnc1)C1CCCN(S(=O)(=O)c2cc(Cl)ccc2Cl)C1 (stereo not given)
EC50 [1]: 0.999 µM (active)

O=C(COC(=O)/C=C/c1cn(-c2ccccc2)nc1-c1ccc2c(c1)OCCO2)NC1CCS(=O)(=O)C1 (stereo not given)
AC50 (CAAX prenyl protease 2 [2]): 17.4 µM (active) | AC50 [3]: 89.2 µM (active) | AC50 (CAAX prenyl protease 2 [4]): 0.542 µM (active) | EC50 [5]: > 112 µM (not active) | EC50 [6]: > 112 µM (not active)

CN1CN(c2ccccc2)C2(CCN(CCNC(=O)c3ccc4ccccc4c3)CC2)C1=O
IC50 (Phospholipase D2 [7]): 20 µM (active) | IC50 (Phospholipase D1 [8]): 2.8 µM (active)

COc1ccc(/C=C/c2nc3ccccc3c(=O)n2Cc2ccccc2)cc1
IC50 (Hexokinase HKDC1): > 80 µM (inactive) | IC50 (Hexokinase-1): > 80 µM (inactive)

Oc1ccccc1-c1nc(/C=C/c2ccc(Cl)cc2)no1
IC50 (Caspase-3 [9]): 3.7 µM (active) | IC50 [10]: 2.08 µM (active) | IC50 [11]: 1.5 µM (active) | IC50 [12]: 1.44 µM (active) | IC50 [13]: > 99 µM (inactive) | IC50 [14]: 1.4 µM (active) | IC50 [15]: > 99 µM (inactive) | IC50 (Caspase-3 [16]): 1.57 µM (active)

O=C(NCCN1CCC2(CC1)C(=O)NCN2c1cccc(F)c1)c1cnc2ccccc2c1
IC50 (Phospholipase D2 [17]): 0.13 µM (active) | IC50 (Phospholipase D1 [18]): 2.8 µM (active)

O=c1c(O)c(-c2ccc(O)c(O)c2)oc2cc(O)cc(O)c12 [QUERCETIN DIHYDRATE]
IC50 (Large T antigen): 16.1 µM (active) | IC50 (Aspartyl aminopeptidase): 0.385 µM (active) | IC50 (Procathepsin L): > 59.6 µM (not active) | AC50 [19]: 233 µM (active) | EC50 (Oxytocin receptor): > 29.9 µM (not active)
